{"source": "patent US20210386829A1", "about": "“COMPOSITIONS AND METHODS FOR MODULATING CGRP SIGNALING TO REGULATE INNATE LYMPHOID CELL INFLAMMATORY RESPONSES” (The Broad Institute, Inc., priority 2018, published 2021)", "key": {"[1]": {"test_system": "IL-33-induced airway inflammation", "assay": "IL-33-induced airway inflammation, intranasal co-administration of CGRP", "format": "in vivo, mouse", "source_text": "Mice and in vivo ILC activation. C57B1/6J mice were purchased from the Jackson Laboratory. Nmur1-LacZ reporter mice with a LacZ cassette knocked into the Nmur1 locus were rederived from Nmur1^tm1.1(KOMP)Vlcg sperm obtained from the trans-NIH Knock-Out Mouse Project (KOMP) Repository. NMU-deficient mice (NMU-KO) were rederived from B6.129S2-Nmu<tm1Mko> embryos from the RIKEN BioResource Center. For experiments with Nmur1-LacZ (Nmur1-KO) and NMU-KO mice, littermates that were either homozygous or heterozygous for the wild type allele were used as controls. Mice were housed under specific-pathogen-free conditions. For experiments, mice were matched for sex and age, and most mice were 6-10 weeks old. Where indicated, mice were anesthetized with Isoflurane and treated intranasally with the indicated stimuli (500 ng IL-25, 500 ng IL-33, or 20 μg Neuromedin U) daily for three consecutive days. The total administered volume was 20 μl for all conditions. Mice were randomly assigned to treatment groups after matching for sex and age. […] Mice were treated intranasally with 10 μg HDM on day 0, 7, 8, and 9, prior to sacrifice on day 10. All experiments were conducted in accordance with animal protocols approved by the Harvard Medical Area Standing Committee on Animals or BWH IACUC.\nLung analysis. Mice were sacrificed and perfused with cold PBS. Where indicated, after perfusion, broncho-alveolar lavage (BAL) was obtained by injecting 1.5 ml cold PBS into the lungs via a secured tracheal cannula. BALF was centrifuged, and the supernatant was used for analyzing cytokine levels and the cell pellet was resuspended, counted, and used for flow cytometry. Following BAL, lung lobes were dissected. The post-caval lobe was fixed in buffered formalin for histological analysis. Single cell suspensions of the remaining lung parenchymal tissue were prepared with the GentleMACS lung dissociation kit (Miltenyi Biotec) according to the manufacturer's instructions. Where indicated, cells were diluted in 10% Trypan Blue and viable cells counted using a hemocytometer.\nHistology. Following paraffin embedding, sections of the formalin-fixed lung lobe were stained by H&E staining. Tissue sections were scored by a histopathologist in a blinded manner for severity of lung inflammation according to the following scoring system: 0=normal, 1=very mild, 2=mild, 3=moderate or 4=severe.\nMethacholine challenge. Airway hyperresponsiveness was determined as previously described (Talbot, S. et al. Silencing Nociceptor Neurons Reduces Allergic Airway Inflammation. Neuron 87, 341-354, doi:10.1016/j.neuron.2015.06.007 (2015)) using a flexiVent rodent ventilator (SciReq).\nCytokine-induced airway inflammation. Mice received nasally 500 ng IL-25, 500 ng IL-33, 20 ug NMU or 6.65 ug CGRP diluted in DPBS for three consecutive days. For nasal administration, mice were lightly anesthetized with Isoflurane (Cat #07-893-1389; Patterson Veterinary). For induction of inflammatory ILC2s, mice received intraperitoneally 500 ng IL-25 for three consecutive days. One day after the last treatment, mice were euthanized and perfused with 8 ml cold PBS via the right heart ventricle. After exposure of the trachea, a small incision was made at the top of the trachea and a curved gavage needle was inserted. Lungs were washed with 1.5 ml cold PBS via the needle and the retrieved bronchoalveolar lavage fluid was centrifuged at 1300 rpm for 5 min at 4 C. After centrifugation, the supernatant was frozen at −20° C. and the cell pellet was resuspended in 250 ul complete medium and stored on ice until flow cytometric analysis. The post-caval lung lobe was transferred into 10% buffered formalin and stored at room temperature until paraffin embedding for histological analysis. […]"}, "[2]": {"test_system": "lung ILCs", "assay": "CellTrace Violet proliferation assay of sort-purified lung ILCs", "format": "cell-based, mouse", "conditions": "3 days", "method": "ILC in vitro culture. For in vitro experiments 5,000 ILCs/well were cultured in a 96 well round bottom plate with 20 ng/ml IL-7 (R&D Systems), 200 ng/ml IL-25 (R&D Systems) or 20 ng/ml, 2 ng/ml or 0.2 ng/ml IL-33 (BioLegend) with or without 1 μg/ml Neuromedin U (US Biological). In some cases purified CD90.2^+ lung cells were first labeled with CellTrace Violet (Thermo Fisher Scientific), then sorted as described above, and cultured for 3 days under the indicated conditions.\nProliferation assay. Lung cells were isolated and enriched for CD90.2 cells as described above, followed by labeling with CellTrace Violet (Cat #C34557; Thermo Fisher Scientific) according to manufacturer's instructions and subsequently stained with antibodies. After 3-day culture of sort-purified ILCs with 20 ng/ml IL-7 either alone or in combination with 200 ng/ml IL-33, 100 pM CGRP or 100 nM CGRP followed by staining, expression of CellTrace Violet in live (7AAD−) ILCs was analyzed on a BD LSRFortessa (BD Biosciences)."}, "[3]": {"conditions": "IL-33+CGRP vs IL-33 alone, intranasal, three consecutive days"}}, "note": "“Also recorded” adds a separate entry of the source.", "data": [{"substance": "CGRP: neuropeptide calcitonin gene-related peptide (encoded by Calca), ligand of the Ramp1/Calcrl receptor; given at 100 nM in vitro, 6.65 ug nasally", "values": [{"measurement": "lung histology (H&E)", "setting": "[1]; CGRP alone vs PBS-treated control mice", "result": "histologically identical"}, {"measurement": "frequency or total number of lung-resident ILCs", "setting": "[1]; CGRP alone vs PBS-treated mice", "result": "did not alter"}, {"measurement": "IL-33-induced perivascular and peribronchial lymphocytic infiltrates in lung sections (H&E, blinded score)", "setting": "[1]; IL-33+CGRP vs IL-33 alone", "result": "markedly inhibited"}, {"measurement": "airway hyperreactivity (airway resistance, methacholine challenge)", "setting": "[1]; IL-33+CGRP vs IL-33 alone", "result": "less airway hyperreactivity"}, {"measurement": "frequency of IL-5- and IL-13-positive ILCs", "setting": "[1]; IL-33+CGRP vs IL-33 alone", "result": "significantly reduced"}, {"measurement": "frequency of Ki67+ lung ILCs", "setting": "[1]; IL-33+CGRP vs IL-33 alone", "result": "decreased frequencies"}, {"measurement": "lung ILC frequencies and numbers", "setting": "[1]; IL-33+CGRP vs IL-33 alone", "result": "significantly reduced"}, {"measurement": "IL-5 and IL-13 protein in BALF (lung homogenates and BALF)", "setting": "[1]; [3]", "result": "lower; also recorded: reduced; also recorded: greatly diminished"}, {"measurement": "eosinophil frequency in lungs and BALF", "setting": "[1]; [3]", "result": "significantly reduced; also recorded: significantly decreased"}, {"measurement": "eosinophil numbers in lung (lung and BALF)", "setting": "[1]; [3]", "result": "significantly reduced; also recorded: significantly decreased"}, {"measurement": "Il5 and Il13 RNA expression in lung tissue (qPCR)", "setting": "[1]; IL-33+CGRP vs IL-33 alone, intranasal, three consecutive days, analysed one day later", "result": "significantly reduced"}, {"measurement": "IL-33-activated ILCs that proliferated", "setting": "[2]; IL-7+IL-33 in the presence of 100 nM CGRP", "result": "less than 10%"}, {"measurement": "IL-33-induced proliferation of ILCs", "setting": "[2]; IL-33 with 100 pM or 100 nM CGRP vs IL-33 alone", "result": "inhibits IL-33-induced proliferation in a dose-dependent manner; also recorded: strongly inhibited"}]}]}
